In patent EP2879647B1, “SKIN CARE” (University of Pretoria, priority 2012, dated 2014):
Values after ≈ are worked out from the molar mass of the structure shown. Values joined by “and” are separate entries in the source; they are usually repeats but may differ in a detail not shown here. Equal values may be shown once. Blank lines part the entries; values can stand above or below the molecule they belong to. *1 amine or outer side, *2 acyl side, *3 side chain or, on linkers, in order; H or OH if unused. Where a SMILES comes first, the peptide text is derived from it. Bridges are numbered along the chain shown (N, C = ends). Roman numbers before positions name the chains, in order. [ ]: non-standard residue; d: D form. Actinocin(9to1) = Cc1c2oc3c(C)ccc(C(=O)[*:1])c3nc-2c(C(=O)[*:2])c(N)c1=O; NMeV = CN[C@H](C(=O)O)C(C)C; Sar = CNCC(=O)O

Experiments:
[1] = system: Propionibacterium acnes (ATCC 11827); assay: Antibacterial bioassay, MIC by broth microdilution (INT colour change); conditions: Cutibacterium acnes, ATCC11827, 72 h, read-out: Antibacterial MIC
Method: Briefly, the bacteria was cultured from a Kwik-Stick on nutrient agar and incubated at 37°C for 72 h under anaerobic conditions before the assay. The 72 h culture of the bacteria was dissolved in nutrient broth and the suspension was adjusted to 0.5 McFarland standard turbidity. […] In a sterile 96-well plate, 100 µl of samples from the stock solution consisting of the plant extract/ isolated compounds (2 mg/ml in 10% dimethyl sulphoxide (DMSO)) and the positive control tetracycline (0.2 mg/ml) was diluted with broth. […] The bacterial suspension (100 µl) was added to the wells. […] The plates were incubated at 37°C for 72 h in an anaerobic environment.

[2] = DPPH antioxidant (radical scavenging) assay; assay type: biochemical; conditions: for Antioxidant IC50 / IC50: DPPH; for Antioxidant IC50: 550 nm, samples 100 to 0.7 µg/ml; for IC50: value in brackets
Method: Following the procedures as described by DuToit et al. (2001) for each sample, a dilution series (8 dilutions) was prepared in a 96 well plate by adding distilled water as a dilution medium. […] Each concentration was tested in triplicates. Vitamin C was used as a positive control. The radical scavenging capacities of the samples were determined using a BIOTEK plate reader to measure the disappearance of DPPH at 550 nm. The radical scavenging activity was measured in terms of the amount of antioxidants necessary to decrease the initial DPPH absorbance by 50% (IC50). The IC50 value of each sample was determined graphically by plotting the absorbance of DPPH as a function of the sample concentration in μg/ml. The IC50 is the amount of antioxidant necessary to decrease the initial DPPH absorbance by 50%. The results were calculated using the following equation: AA% = {Absblank(Abssample-Abscontrol)/Absblank} × 100 [formula] The mg vitamin C equivalents/g dry weight of potent samples was calculated as follows: […]) = (IC50(vitc)/IC50(sample)) × 1000. [formula]

[3] = In vitro cytotoxicity assay (XTT); conditions: mouse; for CC50: b16-f10 cells
Method: (§1) The mouse melanocytes (B16-F10) cells were cultured in a complete Minimum Essential Eagle's Medium (MEM) whereas the human U937 cells were cultured in Roswell Park Memorial Institute (RPMI) containing 10% fetal bovine serum (FBS) and 1% gentamycin. B16-F10 (10^5 cells per well) and U937 (10^6 cells per well) were seeded into a 96-well plate. […] The plate was then incubated at 37°C in 5% CO2, and a humidified atmosphere after which the toxicity effects of the extracts was assayed using the XTT (sodium 3'-[1-(phenyl amino-carbonyl)-3,4-tetrazolium]-bis-[4-methoxy-6-nitrobenzene sulfonic acid hydrate) cytotoxicity assay. […] By referring to the control (medium with DMSO), the cell survival rate was assessed.

[4] = constituent of Viburnum jucundum (Rios et al., 2001); cited from earlier work
[5] = In vitro cytotoxicity assay (XTT); conditions: human; for CC50: u937 cells
Method: as §1

[6] = system: colorectal cancer cells (HCT15); conditions: Sung et al., 1999; cited from earlier work
[7] = system: skin cancer cells (SL-MEL-2); conditions: Sung et al., 1999; cited from earlier work
CNS cancer cells (XF498) = conditions: Sung et al., 1999; cited from earlier work
MAC tumour cells = conditions: Woldemariam et al. (1992); cited from earlier work
P. acnes = assay: Transmission electron microscopy (TEM) of treated bacteria; conditions: 50 µg/ml, 72 h
Method: The bacterial suspension (5 ml) was mixed with plant extract and pure compound to a final concentration of 300 and 100 µg/ml for plant extract and 50 µg/ml for pure compound. […] The pathogen was treated for 72 h; the control group consisted of only bacterial suspension in nutrient broth. […] Samples were washed with phosphate buffer and postfixed in both 1% osmium tetraoxide and uranyl acetate. The cells were dehydrated in ethanol and embedded in quetol resin. Thin sections were prepared with a microtome and micrographs were taken using a JEOL JEM-2100F field emission electron microscope.

U937 human macrophage = assay: In vitro cytotoxicity assay (XTT); conditions: XTT
Method: as §1

TNF a = assay: Cytokine production (ELISA) in U937 cells co-cultured with heat-killed P. acnes; assay type: cell-based, human; conditions: 100 and 50 µg/ml, U937 cells infected with P. acnes (Fig 3b)
Method: The effect of plant extract on cytokine production (IL 8 and TNF a) was evaluated using enzyme immunoassay kits (ELIZA) using method as described previously (Tsai et al., 2010). Briefly, the log phase culture of P.acnes was harvested, washed three times with phosphate buffer saline (PBS), and incubated at 80°C for 30 min to kill the bacteria. The heat-killed bacteria were stored at 4°C until use. The human U937 cells were seeded at 10^6 cells per well in a 24-well plate and was stimulated with heat killed P. acnes (wet weight 100 µg/ml) alone and in combination with the different test samples. Pentoxifylline was used as a control. After 18 h incubation, the cell-free supernatants were collected and the concentrations of IL 8 and TNF a were analysed. Cytokine standards were serially diluted to facilitate the construction of calibration curves necessary for determining protein concentration of test samples.

IL-8 = assay: as above; assay type: cell-based, human; conditions: U937 cells infected with P. acnes (Fig 3b)

- MIC [1]: > 500 µg/mL
- Antioxidant IC50 [2]: >100 µg/mL
SMILES: CC(=O)OC/C=C(\C)CCC[C@H](C)CCC[C@H](C)CCCC(C)C [Compound C1, phytol acetate]

SMILES: CCCCCCCCCCCCCCCCCCCCCCCCCCCCCCO [Compound C2, triacontanol]
- EC50 [3]: > 100 µg/mL
- viability at 100 µg/ml [3]: 100%
- toxicity [4]: non toxic
- MIC [1]: > 500 µg/mL
- Antioxidant IC50 [2]: >100 µg/mL
- EC50 [5]: > 100 µg/mL
- viability at 100 µg/ml [5]: 100%

SMILES: C/C(=C\CO)CCC[C@H](C)CCC[C@H](C)CCCC(C)C [Compound C3, phytol]
- EC50 [3]: > 100 µg/mL
- viability at 100 µg/ml [3]: 100%
- toxicity against colorectal cancer cells (HCT15) [6]: mild toxicity
- MIC [1]: > 500 µg/mL
- toxicity against skin cancer cells (SL-MEL-2) [7]: mild toxicity
- Antioxidant IC50 [2]: >100 µg/mL
- EC50 [5]: > 100 µg/mL
- viability at 100 µg/ml [5]: 100%
- toxicity against CNS cancer cells (XF498) (CNS cancer cells (XF498)): mild toxicity

- MIC [1]: 1.9 µg/mL and 2.1 µM
- Antioxidant IC50 [2]: 5.05 µg/mL
- IC50 [2]: 10.5 µM
SMILES: COc1c(C)c(O)c(Cc2c(O)c(C)c(OC)c(C(=O)C(C)C)c2O)c(O)c1C(=O)C(C)C [Compound C4, alpha kosin]
- CC50 [3]: < 3.12 µg/mL
- cytotoxic effects against MAC tumour cells (MAC tumour cells): strong cytotoxic effects
- cell injuries to P. acnes (TEM micrograph) (P. acnes): significant damage to P. acnes
- mg vitamin C equivalents/g dry weight ([2]; (IC50 vit C / IC50 sample) x 1000): 392 mg vitamin C equivalents/g dry weight
- CC50 [5]: < 3.12 µg/mL
- Cytotoxicity EC50 U937 human macrophage (U937 human macrophage): <3.12 µg/mL

SMILES: Cc1c2oc3c(C)ccc(C(=O)N[C@@H]4C(=O)N[C@H](C(C)C)C(=O)N5CCC[C@H]5C(=O)N(C)CC(=O)N(C)[C@@H](C(C)C)C(=O)O[C@@H]4C)c3nc-2c(C(=O)N[C@@H]2C(=O)N[C@H](C(C)C)C(=O)N3CCC[C@H]3C(=O)N(C)CC(=O)N(C)[C@@H](C(C)C)C(=O)O[C@@H]2C)c(N)c1=O [actinomycin D, reference compound] (I: T[dV]P[Sar][NMeV] / II: T[dV]P[Sar][NMeV]; ester I:1-I:C, II:1-II:C; linker I:N-II:N via Actinocin(9to1))
- CC50 [3]: 0.0045 µg/mL (≈ 0.00358 µM)
- CC50 [5]: 0.0045 µg/mL (≈ 0.00358 µM)

SMILES: CC(=O)CCCCn1c(=O)c2c(ncn2C)n(C)c1=O [pentoxifylline]
- inhibition of TNF a (TNF a): Significant inhibition
- IL-8 concentration (IL-8): no change

SMILES: CN(C)[C@@H]1C(O)=C(C(N)=O)C(=O)[C@@]2(O)C(O)=C3C(=O)c4c(O)cccc4[C@@](C)(O)[C@H]3C[C@@H]12 [tetracycline, reference compound]
- MIC [1]: 3.1 µg/mL and 7 µM

- Antioxidant IC50 [2]: 1.98 µg/mL
- IC50 [2]: 11.3 µM
SMILES: O=C1O[C@H]([C@@H](O)CO)C(O)=C1O [vitamin C, reference compound]
